Active and inactive are the calls of the source. The rule behind the calls is not given here.
What was measured:
[1] = molecular target: T1, Tyrosine-protein kinase BTK (Homo sapiens, UniProt Q06187); test: Inhibition of BTK in anti-IgM-stimulated human Ramos cells assessed as reduction in Erk phosphorylation at 0.01 to 10 uM incubated for 4 hrs followed by anti-IgM stimulation for 30 mins by Western blot analysis; type: cell-based
Ramos [2] = test: Induction of apoptosis in human Ramos cells assessed as increase in cleaved PARP1 protein expression at 0.01 to 10 uM incubated for 8 hrs by Western blotting analysis; type: functional, cell-based
BJ = test: Cytotoxicity against human BJ cells assessed as reduction in cell viability at 0.1 to 40 uM incubated for 48 hrs by MTS assay; type: cell-based
HepG2 = test: Cytotoxicity against human HepG2 cells assessed as reduction in cell viability at 0.1 to 40 uM incubated for 48 hrs by MTS assay; type: functional, cell-based; conditions: HepG2, 48 h
[3] = molecular target: T1, Tyrosine-protein kinase BTK; test: Inhibition of BTK in anti-IgM-stimulated human Ramos cells assessed as reduction in autophosphorylation at Y223 residues at 0.01 to 10 uM incubated for 4 hrs followed by anti-IgM stimulation for 30 mins by Western blot analysis; type: cell-based
[4] = Toxicity in NOD/SCID mouse xenografted with human Ramos cells assessed as induction of morphological lesions in spleen at 60 mg/kg/day, ip administered daily for 14 days by H and E staining based histologic analysis; type: organism-based; conditions: in vivo, 336 h
[5] = Toxicity in NOD/SCID mouse xenografted with human Ramos cells assessed as changes in body weight at 30 to 60 mg/kg/day, ip administered daily for 14 days; type: organism-based; conditions: in vivo, 336 h
[6] = Toxicity in NOD/SCID mouse xenografted with human Ramos cells assessed as induction of morphological lesions in liver at 60 mg/kg/day, ip administered daily for 14 days by H and E staining based histologic analysis; type: organism-based; conditions: in vivo, 336 h
[7] = molecular target: T1, Tyrosine-protein kinase BTK; test: Inhibition of human recombinant full length BTK expressed in baculovirus in Sf9 insect cells using Poly (4:1 Glu, Tyr) as substrate incubated for 1 hr by ADP-Glo assay
Jurkat = test: Cytotoxicity against human Jurkat cells assessed as reduction in cell viability at 0.1 to 40 uM incubated for 48 hrs by MTS assay; type: functional, cell-based
Raji [8] = test: Potency index,ratio of Spebrutinib IC50 to compound IC50 for antiproliferative activity against human Raji cells assessed as reduction in cell growth incubated for 48 hrs by MTS assay; type: functional
HEF = test: Cytotoxicity against human HEF cells assessed as reduction in cell viability at 0.1 to 40 uM incubated for 48 hrs by MTS assay; type: cell-based
NCI-H1299 = test: Cytotoxicity against human H1299 cells assessed as reduction in cell viability at 0.1 to 40 uM incubated for 48 hrs by MTS assay; type: functional, cell-based; conditions: NCI-H1299, 48 h
Ramos [9] = test: Potency index,ratio of Spebrutinib IC50 to compound IC50 for antiproliferative activity against human Ramos cells assessed as reduction in cell growth incubated for 48 hrs by MTS assay; type: functional
[10] = Toxicity in NOD/SCID mouse xenografted with human Ramos cells assessed as induction of morphological lesions in heart at 60 mg/kg/day, ip administered daily for 14 days by H and E staining based histologic analysis; type: organism-based; conditions: in vivo, 336 h
K562 = test: Cytotoxicity against human K562 cells assessed as reduction in cell viability at 0.1 to 40 uM incubated for 48 hrs by MTS assay; type: functional, cell-based; conditions: K562, 48 h
Raji [11] = test: Potency index,ratio of Ibrutinib IC50 to compound IC50 for antiproliferative activity against human Raji cells assessed as reduction in cell growth incubated for 48 hrs by MTS assay; type: functional
[12] = Toxicity in NOD/SCID mouse xenografted with human Ramos cells assessed as induction of morphological lesions in kidney at 60 mg/kg/day, ip administered daily for 14 days by H and E staining based histologic analysis; type: organism-based; conditions: in vivo, 336 h
MDA-MB-231 = test: Cytotoxicity against human MDA-MB-231 cells assessed as reduction in cell viability at 0.1 to 40 uM incubated for 48 hrs by MTS assay; type: functional, cell-based; conditions: MDA-MB-231, 48 h
[13] = Cytotoxicity against human HELF cells assessed as reduction in cell viability at 0.1 to 40 uM incubated for 48 hrs by MTS assay; type: cell-based
Ramos [14] = test: Antitumor activity in human Ramos cells xenografted in NOD/SCID mouse assessed as reduction in tumor growth at 30 mg/kg/day, ip administered daily for 14 days; type: functional; conditions: 336 h, read-out: TGI
Ramos [15] = test: Potency index,ratio of Ibrutinib IC50 to compound IC50 for antiproliferative activity against human Ramos cells assessed as reduction in cell growth incubated for 48 hrs by MTS assay; type: functional
Ramos [16] = test: Antiproliferative activity against human Ramos cells assessed as reduction in cell growth incubated for 48 hrs by MTS assay
HeLa = test: Cytotoxicity against human HeLa cells assessed as reduction in cell viability at 0.1 to 40 uM incubated for 48 hrs by MTS assay; type: functional, cell-based
Raji [17] = test: Antiproliferative activity against human Raji cells assessed as reduction in cell growth incubated for 48 hrs by MTS assay
786-0 = test: Cytotoxicity against human 786-O cells assessed as reduction in cell viability at 0.1 to 40 uM incubated for 48 hrs by MTS assay; type: functional, cell-based; conditions: 786-0, 48 h
[18] = Toxicity in NOD/SCID mouse xenografted with human Ramos cells assessed as induction of morphological lesions in lung at 60 mg/kg/day, ip administered daily for 14 days by H and E staining based histologic analysis; type: organism-based; conditions: in vivo, 336 h
A549 = test: Cytotoxicity against human A549 cells assessed as reduction in cell viability at 0.1 to 40 uM incubated for 48 hrs by MTS assay; type: functional, cell-based; conditions: A549, 48 h
NCI-H3122 = test: Cytotoxicity against human NCI-H3122 cells assessed as reduction in cell viability at 0.1 to 40 uM incubated for 48 hrs by MTS assay; type: functional, cell-based; conditions: NCI-H3122, 48 h
HT-29 = test: Cytotoxicity against human HT-29 cells assessed as reduction in cell viability at 0.1 to 40 uM incubated for 48 hrs by MTS assay; type: functional, cell-based; conditions: HT-29, 48 h
MCF7 = test: Cytotoxicity against human MCF7 cells assessed as reduction in cell viability at 0.1 to 40 uM incubated for 48 hrs by MTS assay; type: functional, cell-based; conditions: MCF7, 48 h
PC-3 = test: Cytotoxicity against human PC3 cells assessed as reduction in cell viability at 0.1 to 40 uM incubated for 48 hrs by MTS assay; type: functional, cell-based; conditions: PC-3, 48 h
[19] = molecular target: T1, Tyrosine-protein kinase BTK; test: Inhibition of BTK in anti-IgM-stimulated human Ramos cells assessed as reduction in PLCgamma2 phosphorylation at Y1217 residues at 0.01 to 10 uM incubated for 4 hrs followed by anti-IgM stimulation for 30 mins by Western blot analysis; type: cell-based
KARPAS-299 = test: Cytotoxicity against human KARPAS299 cells assessed as reduction in cell viability at 0.1 to 40 uM incubated for 48 hrs by MTS assay; type: functional, cell-based; conditions: KARPAS-299, 48 h
MCF-10A = test: Cytotoxicity against human MCF10A cells assessed as reduction in cell viability at 0.1 to 40 uM incubated for 48 hrs by MTS assay; type: cell-based
[20] = molecular target: T1, Tyrosine-protein kinase BTK; test: Inhibition of BTK in anti-IgM-stimulated human Ramos cells assessed as reduction in Akt phosphorylation at 0.01 to 10 uM incubated for 4 hrs followed by anti-IgM stimulation for 30 mins by Western blot analysis; type: cell-based
Ramos [21] = test: Antitumor activity in human Ramos cells xenografted in NOD/SCID mouse assessed as reduction in tumor growth at 60 mg/kg/day, ip administered daily for 14 days; type: functional; conditions: 336 h, read-out: TGI

T1 sequence (Q06187 whole entry): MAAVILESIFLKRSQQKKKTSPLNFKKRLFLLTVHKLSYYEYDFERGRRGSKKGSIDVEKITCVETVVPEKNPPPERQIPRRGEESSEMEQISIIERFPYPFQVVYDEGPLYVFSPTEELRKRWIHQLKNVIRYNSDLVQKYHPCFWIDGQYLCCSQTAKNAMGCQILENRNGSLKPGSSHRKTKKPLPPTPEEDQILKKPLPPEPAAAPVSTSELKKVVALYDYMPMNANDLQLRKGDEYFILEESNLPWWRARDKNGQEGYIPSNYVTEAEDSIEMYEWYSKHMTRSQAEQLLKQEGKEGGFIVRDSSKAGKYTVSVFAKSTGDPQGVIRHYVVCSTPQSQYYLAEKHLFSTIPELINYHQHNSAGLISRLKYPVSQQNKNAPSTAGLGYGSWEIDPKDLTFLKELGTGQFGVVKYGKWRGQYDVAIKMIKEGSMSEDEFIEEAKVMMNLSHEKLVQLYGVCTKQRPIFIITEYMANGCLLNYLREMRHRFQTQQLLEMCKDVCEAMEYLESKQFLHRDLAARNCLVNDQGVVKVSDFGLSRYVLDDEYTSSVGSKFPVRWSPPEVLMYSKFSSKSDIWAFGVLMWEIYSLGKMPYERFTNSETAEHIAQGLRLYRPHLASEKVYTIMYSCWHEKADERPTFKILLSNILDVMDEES

## C=CC(=O)Nc1cccc(Nc2nc(Nc3ccc(OCCSC(=S)NCc4cccnc4)cc3)ncc2F)c1
[1]
  inhibition: inactive
Ramos [2]
  Activity: Active
BJ
  IC50: 12.8 µM
HepG2
  IC50: 16.2 µM
[3]
  inhibition: Active
[4]
  Activity: Non-Toxic
[5]
  Activity: Non-Toxic
[6]
  Activity: Non-Toxic
[7]
  IC50: 0.00115 µM
Jurkat
  IC50: 2.49 µM
Raji [8]
  Ratio IC50: 10
HEF
  IC50: 28.4 µM
NCI-H1299
  IC50: 17.9 µM
Ramos [9]
  Ratio IC50: 10
[10]
  Activity: Non-Toxic
K562
  IC50: 3.27 µM
Raji [11]
  Ratio IC50: 10
[12]
  Activity: Non-Toxic
MDA-MB-231
  IC50: 35.4 µM
[13]
  IC50: 19.3 µM
Ramos [14]
  inhibition in vivo at 30 mg/kg/day: 21.5%
Ramos [15]
  Ratio IC50: 10
Ramos [16]
  IC50: 0.357 µM
HeLa
  IC50: 8.74 µM
Raji [17]
  IC50: 0.706 µM
786-0
  IC50: 4.96 µM
[18]
  Activity: Non-Toxic
A549
  IC50: 3.2 µM
NCI-H3122
  IC50: 33.4 µM
HT-29
  IC50: 10.2 µM
MCF7
  IC50: 17.4 µM
PC-3
  IC50: 8.25 µM
[19]
  inhibition: Dose-dependent effect
KARPAS-299
  IC50: > 40 µM
MCF-10A
  IC50: 8.62 µM
[20]
  inhibition: Active
Ramos [21]
  inhibition in vivo at 60 mg/kg/day: 57.8%
